Results reported in patent US10150758B2, “PRMT5 inhibitors and uses thereof” (Epizyme, Inc., priority 2012, dated 2018).

Legend:
PRMT5/MEP50 = PRMT5/MEP50 (Homo sapiens (Human), UniProt O14744); assay: PRMT5 Biochemical Assay (PRMT5/MEP50 enzyme assay on peptide substrate, 3H-SAM Flashplate); details: PRMT5/MEP50 4 nM, 3H-SAM 75 nM, peptide 40 nM
Description: S-adenosylmethionine (SAM), S-adenosylhomocysteine (SAH), bicine, KCl, Tween20, dimethylsulfoxide (DMSO), bovine skin gelatin (BSG), and Tris(2-carboxyethyl)phosphine hydrochloride solution (TCEP) were purchased from Sigma-Aldrich at the highest level of purity possible. ^3H-SAM was purchase from American Radiolabeled Chemicals with a specific activity of 80 Ci/mmol. 384-well streptavidin Flashplates were purchased from PerkinElmer.
Peptide representative of human histone H4 residues 1-15 was synthesized with a C-terminal linker-affinity tag motif and a C-terminal amide cap by 21st Century Biochemicals. The peptide was high high-perfomance liquid chromatography (HPLC) purified to greater than 95% purity and confirmed by liquid chromatography mass spectrometry (LC-MS). The sequence was Ac-[…][K-Biot]-amide (SEQ ID NO.:3).
Full-length human PRMT5 (NM_006109.3) transcript variant 1 clone was amplified from a fetal brain cDNA library, incorporating flanking 5′ sequence encoding a FLAG tag ([…]) (SEQ ID NO.:4) fused directly to Ala 2 of PRMT5. Full-length human MEP50 (NM_024102) clone was amplified from a human testis cDNA library incorporating a 5′ sequence encoding a 6-histidine tag (MHHHHHH) (SEQ ID NO.:5) fused directly to Arg 2 of MEP50. The amplified genes were sublconed into pENTR/D/TEV (Life Technologies) and subsequently transferred by Gateway™ attL×attR recombination to pDEST8 baculvirus expression vector (Life Technologies).
Recombinant baculovirus and Baculovirus-Infected Insect Cells (BIIC) were generated according to Bac-to-Bac kit instructions (Life Technologies) and Wasilko, 2006, respectively. Protein over-expression was accomplished by infecting exponentially growing Spodoptera frugiperda (SF9) cell culture at 1.2×10^6 cell/ml with a 5000 fold dilution of BIIC stock. Infections were carried out at 27° C. for 72 hours, harvested by centrifugation, and stored at −80° C. for purification.
Flag-PRMT5/6His-MeP50 was eluted with 300 mM Imidazole in the same buffer. The purity of recovered protein was 87%. Reference: Wasilko, D. J. and S. E. Lee: “TIPS: titerless infected-cells preservation and scale-up” Bioprocess J., 5 (2006), pp. 29-32.
General Procedure for PRMT5/MEP50 Enzyme Assays on Peptide Substrates.
The assays were all performed in a buffer consisting of 20 mM Bicine (pH=7.6), 1 mM TCEP, 0.005% BSG, and 0.002% Tween20, prepared on the day of use. Compounds in 100% DMSO (1 ul) were spotted into a polypropylene 384-well V-bottom plates (Greiner) using a Platemate Plus outfitted with a 384-channel head (Thermo Scientific). DMSO (1 ul) was added to Columns 11, 12, 23, 24, rows A-H for the maximum signal control and 1 ul of SAH, a known product and inhibitor of PRMT5/MEP50, was added to columns 11, 12, 23, 24, rows I-P for the minimum signal control. A cocktail (40 ul) containing the PRMT5/MEP50 enzyme and the peptide was added by Multidrop Combi (Thermo-Fisher). The compounds were allowed to incubate with PRMT5/MEP50 for 30 min at 25 degrees Celsius, then a cocktail (10 ul) containing ^3H-SAM was added to initiate the reaction (final volume=51 ul). The final concentrations of the components were as follows: PRMT5/MEP50 was 4 nM, ^3H-SAM was 75 nM, peptide was 40 nM, SAH in the minimum signal control wells was 100 uM, and the DMSO concentration was 1%. The assays were stopped by the addition of non-radioactive SAM (10 ul) to a final concentration of 600 uM, which dilutes the ^3H-SAM to a level where its incorporation into the peptide substrate is no longer detectable. 50 ul of the reaction in the 384-well polypropylene plate was then transferred to a 384-well Flashplate and the biotinylated peptides were allowed to bind to the streptavidin surface for at least 1 hour before being washed three times with 0.1% Tween20 in a Biotek ELx405 plate washer. […]

[1] = system: symmetric di-methyl arginine in Z-138 cells; assay: Z-138 Methylation Assay (In Cell Western for symmetric di-methyl arginine and DNA content); assay type: cell-based; details: Homo sapiens, 96 hours incubation, read-out: ICW EC50
Description: [formula] [formula] Where top and bottom are the normally allowed to float, but may be fixed at 100 or 0 respectively in a 3-parameter fit. The Hill Coefficient normally allowed to float but may also be fixed at 1 in a 3-parameter fit. Y is the % inhibition and X is the compound concentration. Z-138 Methylation Assay
Z-138 suspension cells were purchased from ATCC (American Type Culture Collection, Manassas, Va.). RPMI/Glutamax medium, penicillin-streptomycin, heat inactivated fetal bovine serum, and D-PBS were purchased from Life Technologies, Grand Island, N.Y., USA. Odyssey blocking buffer, 800CW goat anti-rabbit IgG (H+L) antibody, and Licor Odyssey infrared scanner were purchased from Licor Biosciences, Lincoln, Nebr., USA. Symmetric di-methyl arginine antibody was purchased from EMD Millipore, Billerica, Mass., USA. 16% Paraformaldehyde was purchased from Electron Microscopy Sciences, Hatfield, Pa., USA.
Z-138 suspension cells were maintained in growth medium (RPMI 1640 supplemented with 10% v/v heat inactivated fetal bovine serum and 100 units/mL penicillin-streptomycin) and cultured at 37° C. under 5% CO2.
Cell Treatment, in Cell Western (ICW) for Detection of Symmetric Di-Methyl Arginine and DNA Content.
Z-138 cells were seeded in assay medium at a concentration of 50,000 cells per mL to a 384-well cell culture plate with 50 μL per well. Compound (100 nL) from 384 well source plates was added directly to 384 well cell plate. Plates were incubated at 37° C., 5% CO2 for 96 hours. After four days of incubation, 40 μL of cells from incubated plates were added to poly-D-lysine coated 384 well culture plates (BD Biosciences 356697). Plates were incubated at room temperature for 30 minutes then incubated at 37° C., 5% CO2 for 5 hours. After the incubation, 40 μL per well of 8% paraformaldehyde in PBS (16% paraformaldahyde was diluted to 8% in PBS) was added to each plate and incubated for 30 minutes. Plates were transferred to a Biotek 405 plate washer and washed 5 times with 100 μL per well of wash buffer (1×PBS with 0.1% Triton X-100 (v/v)). Next 30 μL per well of Odyssey blocking buffer were added to each plate and incubated 1 hour at room temperature. Blocking buffer was removed and 20 μL per well of primary antibody was added (symmetric di-methyl arginine diluted 1:100 in Odyssey buffer with 0.1% Tween 20 (v/v)) and plates were incubated overnight (16 hours) at 4° C. Plates were washed 5 times with 100 μL per well of wash buffer. Next 20 μL per well of secondary antibody was added (1:200 800CW goat anti-rabbit IgG (H+L) antibody, 1:1000 DRAQ5 (Biostatus limited) in Odyssey buffer with 0.1% Tween 20 (v/v)) and incubated for 1 hour at room temperature. The plates were washed 5 times with 100 μL per well wash buffer then 1 time with 100 μL per well of water. Plates were allowed to dry at room temperature then imaged on the Licor Odyssey machine which measures integrated intensity at 700 nm and 800 nm wavelengths. Both 700 and 800 channels were scanned.
First, the ratio for each well was determined by:
Each plate included fourteen control wells of DMSO only treatment (minimum inhibition) as well as fourteen control wells for maximum inhibition treated with 3 μM of a reference compound (Background wells). The average of the ratio values for each control type was calculated and used to determine the percent inhibition for each test well in the plate. Reference compound was serially diluted three-fold in DMSO for a total of nine test concentrations, beginning at 3 μM. Percent inhibition was determined and IC50 curves were generated using triplicate wells per concentration of compound.

Z-138 cells = assay: Z-138 Proliferation Assay (Cell Titer Glo); assay type: cell-based; details: Homo sapiens, 120 h, 5 days, top concentration 20 μM
Description: [formula] Z-138 Proliferation Assay
Z-138 suspension cells were purchased from ATCC (American Type Culture Collection, Manassas, Va.). RPMI/Glutamax medium, penicillin-streptomycin, heat inactivated fetal bovine serum were purchased from Life Technologies, Grand Island, N.Y., USA. V-bottom polypropylene 384-well plates were purchased from Greiner Bio-One, Monroe, N.C., USA. Cell culture 384-well white opaque plates were purchased from Perkin Elmer, Waltham, Mass., USA. Cell-Titer Glo® was purchased from Promega Corporation, Madison, Wis., USA. SpectraMax M5 plate reader was purchased from Molecular Devices LLC, Sunnyvale, Calif., USA.
Z-138 suspension cells were maintained in growth medium (RPMI 1640 supplemented with 10% v/v heat inactivated fetal bovine serum and cultured at 37° C. under 5% CO2. Under assay conditions, cells were incubated in assay medium (RPMI 1640 supplemented with 10% v/v heat inactivated fetal bovine serum and 100 units/mL penicillin-streptomycin) at 37° C. under 5% CO2.
For the assessment of the effect of compounds on the proliferation of the Z-138 cell line, exponentially growing cells were plated in 384-well white opaque plates at a density of 10,000 cells/ml in a final volume of 50 μl of assay medium. A compound source plate was prepared by performing triplicate nine-point 3-fold serial dilutions in DMSO, beginning at 10 mM (final top concentration of compound in the assay was 20 μM and the DMSO was 0.2%). A 100 nL aliquot from the compound stock plate was added to its respective well in the cell plate. […] After addition of compounds, assay plates were incubated for 5 days at 37° C., 5% CO2, relative humidity >90%. Cell viability was measured by quantitation of ATP present in the cell cultures, adding 35 μl of Cell Titer Glo® reagent to the cell plates. Luminescence was read in the SpectraMax M5 microplate reader. The concentration of compound inhibiting cell viability by 50% was determined using a 4-parametric fit of the normalized dose response curves.

PRMT5/MEP50, sequence (O14744 other isoform, or with tags, fused parts or gaps): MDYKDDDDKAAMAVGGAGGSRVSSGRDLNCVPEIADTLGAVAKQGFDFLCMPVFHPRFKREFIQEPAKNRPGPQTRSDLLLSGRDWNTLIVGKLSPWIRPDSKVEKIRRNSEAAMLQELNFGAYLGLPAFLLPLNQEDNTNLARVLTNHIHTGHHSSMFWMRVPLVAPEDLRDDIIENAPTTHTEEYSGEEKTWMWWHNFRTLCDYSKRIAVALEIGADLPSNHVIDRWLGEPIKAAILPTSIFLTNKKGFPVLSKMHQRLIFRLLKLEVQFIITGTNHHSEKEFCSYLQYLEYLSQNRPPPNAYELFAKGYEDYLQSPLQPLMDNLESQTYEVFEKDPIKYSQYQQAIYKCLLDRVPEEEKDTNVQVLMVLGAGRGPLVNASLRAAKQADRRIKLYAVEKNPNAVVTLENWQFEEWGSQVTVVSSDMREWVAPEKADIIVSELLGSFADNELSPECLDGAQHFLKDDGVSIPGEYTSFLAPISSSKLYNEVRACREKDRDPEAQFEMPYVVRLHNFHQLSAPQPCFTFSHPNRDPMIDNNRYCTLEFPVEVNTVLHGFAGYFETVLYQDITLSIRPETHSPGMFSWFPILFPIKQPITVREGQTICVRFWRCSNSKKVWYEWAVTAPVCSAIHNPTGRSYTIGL
PRMT5/MEP50, sequence (Q9BQA1 other isoform, or with tags, fused parts or gaps partner): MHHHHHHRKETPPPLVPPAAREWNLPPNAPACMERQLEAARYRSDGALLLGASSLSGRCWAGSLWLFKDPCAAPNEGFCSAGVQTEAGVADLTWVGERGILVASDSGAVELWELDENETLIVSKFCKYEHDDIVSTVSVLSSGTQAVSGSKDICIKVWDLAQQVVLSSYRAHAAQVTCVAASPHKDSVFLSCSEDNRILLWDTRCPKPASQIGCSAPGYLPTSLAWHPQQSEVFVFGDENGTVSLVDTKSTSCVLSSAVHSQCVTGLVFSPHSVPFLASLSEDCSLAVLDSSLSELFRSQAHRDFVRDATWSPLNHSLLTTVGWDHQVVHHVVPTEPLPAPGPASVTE

| Structure (SMILES) | IC50 (PRMT5/MEP50) [µM] | EC50 [1] [µM] | EC50 (Z-138 cells) [µM] |
| --- | --- | --- | --- |
| O=C1CN(Cc2ccccn2)CCN1CC(O)CN1CCc2ccccc2C1 (stereo not shown) [Compound 25] | 1 to 10 | – | – |
| O=c1cc(Nc2ccccc2)ccn1C[C@H](O)CN1CCc2ccccc2C1 [Compound 18] | 1 to 10 | – | – |
| O=c1cccc(CC(O)CN2CCc3ccccc3C2)[nH]1 (stereo not shown) [Compound 2] | 10 to 50 | – | – |
| O=c1cc(-c2ccccc2)ccn1C[C@H](O)CN1CCc2ccccc2C1 [Compound 13] | – | > 50 | – |
| O=C1CC(c2ccccc2)CCN1C[C@H](O)CN1CCc2ccccc2C1 (stereo partly shown) [Compound 16] | 1 to 10 | – | – |
| O=C1CN(C2CCOCC2)CCN1CC(O)CN1CCc2ccccc2C1 (stereo not shown) [Compound 23] | 1 to 10 | – | – |
| O=C1CN(c2ccc(CO)cc2)CCN1CC(O)CN1CCc2ccccc2C1 (stereo not shown) [Compound 20] | 0.101 to 1 | 1 to 10 | – |
| CC(=O)N1CCN(CC(O)CN2CCc3ccccc3C2)C(=O)C1 (stereo not shown) [Compound 21] | 1 to 10 | – | – |
| O=C1CN(c2ccccc2F)CCN1CC(O)CN1CCc2ccccc2C1 (stereo not shown) [Compound 11, 1-(3-(3,4-dihydroisoquinolin-2(1H)-yl)-2-hydroxypropyl)-4-(2-fluorophenyl)piperazin-2-one] | – | > 50 | – |
| Cc1ccccc1N1CCN(CC(O)CN2CCc3ccccc3C2)C(=O)C1 (stereo not shown) [Compound 10] | – | > 50 | – |
| O=C1CN(Cc2ccccc2)CCN1CC(O)CN1CCc2ccccc2C1 (stereo not shown) [Compound 24] | 1 to 10 | – | – |
| CN1CCN(CC(O)CN2CCc3ccccc3C2)C(=O)C1 (stereo not shown) [Compound 27] | > 50 | – | – |
| O=C1CC(c2ccccc2)CCN1C[C@@H](O)CN1CCc2ccccc2C1 (stereo partly shown) [Compound 17] | 1 to 10 | – | – |
| O=C1COCCN1CC(O)CN1CCc2ccccc2C1 (stereo not shown) [Compound 28] | 1 to 10 | – | – |
| O=c1cc(-c2ccccc2)ccn1C[C@@H](O)CN1CCc2ccccc2C1 [Compound 14] | – | > 50 | – |
| O=C(NC1CCOCC1)c1ccn(CC(O)CN2CCc3ccccc3C2)c(=O)c1 (stereo not shown) [Compound 33] | – | 1 to 10 | > 20 |
| Cc1cccc(N2CCN(CC(O)CN3CCc4ccccc4C3)C(=O)C2)c1 (stereo not shown) [Compound 3, 1-(3-(3,4-dihydroisoquinolin-2(1H)-yl)-2-hydroxypropyl)-4-(m-tolyl)piperazin-2-one] | 10 to 50 | – | – |
| O=C1CN(c2cccc(Cl)c2)CCN1CC(O)CN1CCc2ccccc2C1 (stereo not shown) [Compound 5, 4-(3-chlorophenyl)-1-(3-(3,4-dihydroisoquinolin-2(1H)-yl)-2-hydroxypropyl)piperazin-2-one] | < 0.1 | 1 to 10 | – |
| CN(C)c1ccc(N2CCN(C[C@H](O)CN3CCc4ccccc4C3)C(=O)C2)cc1 [Compound 30] | 1 to 10 | – | – |
| CS(=O)(=O)N1CCN(CC(O)CN2CCc3ccccc3C2)C(=O)C1 (stereo not shown) [Compound 22] | 1 to 10 | – | – |
| O=C1CN(Cc2cccnc2)CCN1CC(O)CN1CCc2ccccc2C1 (stereo not shown) [Compound 26] | 1 to 10 | – | – |
| O=C(NC1CCOCC1)C1CC(=O)N(CC(O)CN2CCc3ccccc3C2)C1 (stereo not shown) [Compound 32] | > 10 | – | – |
